The numbers were not newly measured in patent EP4670741A1 (priority 2023, dated 2024), which cites them from elsewhere.

Usually IC50 stands for the point on the concentration scale where inhibition reaches its midpoint.

One data set deals with T1, Topoisomerase I (Homo sapiens, UniProt P11387).
T1 sequence (P11387 1-765): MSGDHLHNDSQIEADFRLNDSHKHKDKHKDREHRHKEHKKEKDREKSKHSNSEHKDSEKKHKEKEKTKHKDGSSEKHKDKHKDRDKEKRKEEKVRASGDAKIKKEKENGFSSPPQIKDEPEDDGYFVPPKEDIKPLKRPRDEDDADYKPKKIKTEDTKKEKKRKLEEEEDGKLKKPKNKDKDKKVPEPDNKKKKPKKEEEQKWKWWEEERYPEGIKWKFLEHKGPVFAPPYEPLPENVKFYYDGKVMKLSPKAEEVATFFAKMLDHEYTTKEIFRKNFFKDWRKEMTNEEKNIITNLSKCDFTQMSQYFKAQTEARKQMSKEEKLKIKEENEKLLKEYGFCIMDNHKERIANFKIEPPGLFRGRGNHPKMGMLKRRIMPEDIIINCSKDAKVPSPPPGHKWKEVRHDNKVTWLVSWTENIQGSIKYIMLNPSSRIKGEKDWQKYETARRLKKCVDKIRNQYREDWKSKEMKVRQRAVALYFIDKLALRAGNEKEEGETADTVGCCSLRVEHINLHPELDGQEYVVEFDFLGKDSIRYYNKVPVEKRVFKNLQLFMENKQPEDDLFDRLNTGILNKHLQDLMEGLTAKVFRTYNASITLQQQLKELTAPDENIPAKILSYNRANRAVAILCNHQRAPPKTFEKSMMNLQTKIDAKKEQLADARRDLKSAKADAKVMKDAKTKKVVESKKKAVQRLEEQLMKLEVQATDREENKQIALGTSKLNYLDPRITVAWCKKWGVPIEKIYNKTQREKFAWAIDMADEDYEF
The following applies: Topoisomerase I inhibitor.

The test system of data set [1] is various cancer cell lines. Conditions: read-out: IC50 values; 140 cell lines derived from various tumor types; majority of tested cancer cells.

With `CC[C@@]1(O)C(=O)OCc2c1cc1n(c2=O)Cc2c-1nc1cc(F)c(C)c3c1c2[C@@H](NC(=O)CO)CC3` [Dxd], the IC50 on Topoisomerase I was 310 nM. Consider `CC[C@@]1(O)C(=O)OCc2c1cc1n(c2=O)Cc2cc3cc4c(cc3nc2-1)OCO4` [FL118], for which the IC50 in data set [1] is less than 100 nM.
